Results on 13 molecules are retold here after patent publication US5340808A, “Fused pyridazinoquinazolone derivatives as neurotrophic agents” (Warner Lambert Company, priority 1992, dated 1994).

For orientation: inhibition means the change of the read-out against control, counted positive when it falls. A word on the IC50: it is the midpoint of a concentration-inhibition curve.

Experiment [1] addresses T1, p75 receptor (truncated form, residues 1-222) (Homo sapiens, UniProt P08138).
T1 construct: truncated form (residues 1-222, molecular weight=56 KDa) of the p75 receptor; biotin (chemical label, immobilised on streptavidin); purchased Chiron Corporation, Emeryville, Calif; (also commercially available from Austral Biologicals, Inc., San Diego, Calif.)
T1 sequence (P08138 29-250): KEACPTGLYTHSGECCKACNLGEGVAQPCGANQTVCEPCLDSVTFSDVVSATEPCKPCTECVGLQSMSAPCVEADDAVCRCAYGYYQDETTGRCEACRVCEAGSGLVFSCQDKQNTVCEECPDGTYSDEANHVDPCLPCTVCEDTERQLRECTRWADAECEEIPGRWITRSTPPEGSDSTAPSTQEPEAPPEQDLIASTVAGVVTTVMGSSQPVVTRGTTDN
The experiment is described as follows: Inhibition of 125I-NGF binding to the NGF p75 receptor. As to conditions: 2 nM 125I-NGF, 2 hours at room temperature; for inhibition at 10 µM: at 10,000 nM, read-out: Inhibition of 125I-NGF Binding to p 75 (% inh); for IC50: read-out: Inhibition of 125I-NGF Binding to p 75 (IC50). As for the experimental part:
Binding assays of novel compounds to the NGF p75 receptor are performed using a truncated form (residues 1-222, molecular weight=56 KDa) of the p75 receptor, originally obtained from Chiron Corporation, Emeryville, Calif., but also commercially available from Austral Biologicals, Inc. (San Diego, Calif.), on plastic 96 well microtiter plates (Immulon II Dynatech). The wells are coated with 50 μl/well of 20 μg/ml streptavidin in a […] (DPBS). The plates are then incubated at room temperature for 6 hours. The excess streptavidin is then poured out, the wells are washed with a 0.1% solution of bovine serum albumin (BSA) in DPBS. To each well is then added […] of a DPBS solution containing the truncated p75 receptor, which has previously been reacted with biotin by standard procedures. The plates are then incubated at room temperature for 2 hours, and washed with 0.2% BSA/DPBS. To each well is added 98 μl of 2 nM ^125 I-NGF, followed by 2 μl/well of a concentration of test compound that is 50 times greater than the desired final test concentration. The plates are incubated for 2 hours at room temperature. […]

Another experiment deals with sensory neuropathies. As to conditions: cited from earlier work.
For experiment [2], the system named is basal forebrain cholinergic neurons. As to conditions: cited from earlier work.
A further experiment concerns Alzheimer's disease. The conditions noted are these: recent clinical findings in humans; cited from earlier work.
Experiment [3] has as its system substantia nigra dopaminergic neurons. As to conditions: cited from earlier work.

With `CC(=O)Nc1ccc2c(=O)n3nc(C(=O)O)ccc3nc2c1` [7 -Acetylamino-10-oxo-10H-pyridazino[6,1-b]quinazoline-2-carboxylic acid], the inhibition at 10 µM in experiment [1] amounted to 42%.

For `Cc1ccc2c(=O)n3nc(C(=O)O)ccc3nc2c1` [7-Methyl-10-oxo-10H-pyridazino[6,1-b]quinazoline-2-carboxylic acid], the IC50 in experiment [1] is 4900 nM.

Take `O=C(Nc1ccc2nc3ccc(C(=O)O)nn3c(=O)c2c1)c1ccccc1` [8-(Benzoylamino)-10-oxo-10H-pyridazino[6,1-b]-quinazoline-2-carboxylic acid]: in experiment [1], the IC50 was 67 nM.

Turning to `O=C(O)c1ccc2nc3ccc(Cl)cc3c(=O)n2n1` [8-Chloro-10-oxo-10H-pyridazino[6,1-b]quinazoline-2-carboxylic acid], the IC50 in experiment [1] stood at 4000 nM.

On to `COc1ccc2nc3ccc(C(=O)O)nn3c(=O)c2c1` [8-Methoxy-10-oxo-10H-pyridazino[6,1-b]quinazoline-2-carboxylic acid], for which the IC50 in experiment [1] was 1500 nM.

As for `Cc1ccc2nc3ccc(C(=O)O)nn3c(=O)c2c1` [8-Methyl-10-oxo-10H-pyridazino[6,1-b]quinazoline-2-carboxylic acid], in experiment [1], the IC50 was found to be 1800 nM.

For the molecule `Cc1ccc(C(=O)Nc2ccc3nc4ccc(C(=O)O)nn4c(=O)c3c2)cc1` [8-[(4-Methylbenzoyl)amino]-10-oxo-10H-pyridazino [6,1-b]quinazoline-2-carboxylic acid], the IC50 in experiment [1] amounted to 238 nM.

With `O=C(O)c1ccc2c(=O)n3nc(C(=O)O)ccc3nc2c1` [10-Oxo-10H-pyridazino[6,1-b]quinazoline-2,7-dicarboxylic acid], the inhibition at 10 µM in experiment [1] was 46%.

Consider `O=C(O)c1ccc2nc3ccc(C(=O)O)nn3c(=O)c2c1` [10-Oxo-10H-pyridazino[6,1-b]quinazoline-2,8-dicarboxylic acid], for which the IC50 in experiment [1] came to 2190 nM.

Regarding `O=C(O)c1ccc2nc3ccccc3c(=O)n2n1` [10-Oxo-10H-pyridazino[6,1-b]quinazoline-2-carboxylic acid], in experiment [1], the inhibition at 10 µM amounted to 39%.

Turning to `O=C(O)c1ccc2nc3cc4ccccc4cc3c(=O)n2n1` [12-Oxo-12H-benzo[g]pyridazino[3,2-b]quinazoline-2-carboxylic acid], in experiment [1], the half-inhibitory concentration (IC50) is 344 to 369 nM.

For the molecule “NGF: β-subunit, a dimer consisting of two equivalent monomers of approximately 13,000 dalton molecular weight”, the “development of large-fiber sensory neuropathies from cisplatin, and animal model of diabetes-induced neuropathy” value in the experiment on sensory neuropathies (cisplatin, animal model of diabetes-induced neuropathy) is “efficacious”. Moreover, the “development of small-fiber sensory neuropathies from taxol” value in the experiment with sensory neuropathies (taxol) is listed as “prevents the development of small-fiber sensory neuropathies”. The “behavioral impairment associated with atrophied or lesioned basal forebrain cholinergic neurons” value in experiment [2] (animals with atrophied or lesioned basal forebrain cholinergic neurons) is given as “reverse the associated behavioral impairment”. The “ability of brain cholinergic neurons to survive a chemical insult” value in experiment [2] (chemical insult) is reported as “enhances the ability of brain cholinergic neurons to survive a chemical insult”. The “degeneration of neurons in the medial septal nucleus after lesion of the septo-hippocampal pathway” value in experiment [2] (into the cerebrospinal fluid via a miniosmotic pump) is “This neuronal degeneration can be prevented”. In addition, in the experiment with Alzheimer's disease, the “usefulness in the treatment of AD” value is “treatment with NGF is useful in the treatment of AD”.

B1: BDNF: member of the neurotrophins, a family of related neurotrophic peptides (protein, UniProt P23560 19-247, looked up)
Neurotrophic factor BDNF …: APMKEANIRGQGGLAYPGVRTHGTLESVNGPKAGSRGLTSLADTFEHVIEELLDEDQKVRPNEENNKDADLYTSRVMLSSQVPLEPPLLFLLEEYKNYLDAANMSMRVRRHSDPARRGELSVCDSISEWVTAADKKTAVDMSGGTVTVLEKVPVSKGQLKQYFYETKCNPMGYTKEGCRGIDKRHWNSQCRTTQSYVRALTMDSKKRIGWRFIRIDTSCVCTLTIKRGR
For the molecule B1, in experiment [3], the “neurotrophic effects on substantia nigra dopaminergic neurons” value is listed as “exerts neurotrophic effects on substantia nigra dopaminergic neurons”.
